Test results reported in article PMC7577125 (Antimicrobial Agents and Chemotherapy, 2020).
Where two headings read alike, the source gives them in different places.

Assays:
[1] = test system: HBV; test: De novo infection models (HepG2-NTCP and PHH), summary; type: cell-based, Hepatitis B virus; conditions: Hepatitis B virus; range over two de novo infection models; read-out: EC50, suppression of cccDNA formation
[2] = test system: HBV capsid DNA; test: Incoming capsid assay in HepG2-NTCP cells; type: cell-based; conditions: Hepatitis B virus, 3 h, read-out: Capsid DNA % of Control
[3] = test system: HBV capsid DNA; test: Incoming capsid assay in PHH cells; type: cell-based; conditions: Hepatitis B virus, 3 h, read-out: Capsid DNA % of Control
[4] = test system: HBV; test: HBV RNA/DNA analyses in induced HepAD38 cells (Northern/Southern blot); type: cell-based, Hepatitis B virus; conditions: for activity at 2 µM: Hepatitis B virus, HePAD38
[5] = test system: HBV genotype B; test: microbe, parasite or virus in culture; type: cell-based; conditions: Hepatitis B virus, read-out: Mean antiviral EC50
[6] = test system: HBV genotype C; test: microbe, parasite or virus in culture; type: cell-based; conditions: Hepatitis B virus, read-out: Mean antiviral EC50
[7] = test system: HBV Cp Wild type; test: microbe, parasite or virus in culture; type: cell-based, Hepatitis B virus
[8] = test system: HBV Cp D29G; test: microbe, parasite or virus in culture; type: cell-based, Hepatitis B virus
[9] = test system: HBV Cp T33N; test: microbe, parasite or virus in culture; type: cell-based, Hepatitis B virus
[10] = test system: HBV Cp T109I; test: microbe, parasite or virus in culture; type: cell-based, Hepatitis B virus
[11] = biological target: T1, CYP2B6 (Homo sapiens, UniProt P20813); test: CYP inhibition in human liver microsomes, 2B6; type: in vitro ADME; conditions: 0.1–100 μM
T1 construct: in human liver microsomes; from tissue; host or cells: human liver microsomes
T1 sequence (P20813 whole entry): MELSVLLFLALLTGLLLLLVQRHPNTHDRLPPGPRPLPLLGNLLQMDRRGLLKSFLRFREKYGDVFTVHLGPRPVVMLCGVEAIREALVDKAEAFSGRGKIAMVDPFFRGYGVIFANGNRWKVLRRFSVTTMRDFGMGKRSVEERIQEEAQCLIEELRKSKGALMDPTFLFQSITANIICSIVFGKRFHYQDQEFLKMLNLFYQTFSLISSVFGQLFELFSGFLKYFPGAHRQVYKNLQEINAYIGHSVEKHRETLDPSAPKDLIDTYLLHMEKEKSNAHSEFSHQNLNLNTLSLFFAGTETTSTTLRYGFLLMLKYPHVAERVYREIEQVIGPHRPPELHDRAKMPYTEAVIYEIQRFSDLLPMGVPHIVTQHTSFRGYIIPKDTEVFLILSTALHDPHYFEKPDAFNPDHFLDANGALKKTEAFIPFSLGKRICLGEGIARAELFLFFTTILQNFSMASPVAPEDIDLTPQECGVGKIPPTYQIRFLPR

[12] = test system: Huh7, HepG2, HeLa H1A, HEK293, NCI-H226, MOLT-4, PBMC
[13] = rat, 1 μM
[14] = in vitro; conditions: human
[15] = test system: herpes simplex virus 1, human rhinovirus 16, influenza A virus; test: Cell protection assays with 3 unrelated viruses; conditions: concentrations of up to 10 μM
[16] = test system: HBV; test: HBV DNA replication in cell culture systems (HepAD38, HepG2-NTCP, PHHs), summary; conditions: Hepatitis B virus, HePAD38, read-out: EC50, inhibition of HBV DNA replication
Source text: The first is an HBV-inducible cell line (HepAD38) that bears a single “1.1 copy” of the HBV genome (genotype D, subtype ayw) under the control of a cytomegalovirus (CMV) tetracycline (Tet)-off promoter ([13]), and the second utilizes HBV infection of either a HepG2-derived cell line stably expressing the HBV entry receptor sodium taurocholate cotransporting polypeptide (NTCP) (HepG2-NTCP) or primary human hepatocytes (PHHs). The primary marker measured for inhibition of HBV replication in the cell culture systems is viral DNA.
HepAD38 cells were trypsinized and then washed three times with phosphate-buffered saline (PBS) to remove traces of Tet. Cells were seeded into 96-well plates in assay medium (DMEM–F-12 medium with 2% Tet-free FBS) and treated with compounds. Supernatants and cells were harvested at 5 days postinduction.
HepG2-NCTP cells were infected with purified HepAD38 virus at a multiplicity of infection (MOI) of 50 in infection medium (DMEM, 5% FBS, 2% DMSO, 5% PEG 8000). Following infection, HepG2-NTCP cells were washed twice and switched to HepG2-NTCP treatment medium (DMEM, 5% FBS). PHHs were infected with HBV at an MOI of 50 in infection medium and grown in PHH maintenance medium for the duration of the experiment. Compounds were added after infection. […] Intracellular HBV DNA and pgRNA were measured by branch DNA (bDNA) assays (Thermo Fisher).

[17] = Hepatitis B virus, Huh-7, read-out: Mean EC50

O=C(NCc1cnc(C(F)(F)F)s1)c1ccc2c(c1)NC(=O)c1ccccc1S2(=O)=O [ABI-H0731]
EC50 [1]: 1840 to 7300 nM | activity at 0.04 µM ([2]; 0.04 μM): 105% | activity at 0.12 µM ([2]; 0.12 μM): 107% | activity at […] ([2]; 0.37 μM): 103% | activity at 1.11 µM ([2]; 1.11 μM): 91% | activity at 3.33 µM ([2]; 3.33 μM): 73% | activity at 10 µM ([2]; 10.0 μM): 10% | activity at […] ([3]; 0.37 μM): 71% | activity at 1.11 µM ([3]; 1.11 μM): 60% | activity at 3.33 µM ([3]; 3.33 μM): 32% | activity at 10 µM ([3]; 10.0 μM): 9% | Levels of encapsidated pgRNA by Northern blotting ([4]; HepAD38, 10-fold over VR EC50): virtually undetectable | rcDNA detection by Southern blot ([4]; HepAD38, 10-fold over VR EC50): could not be detected | activity at 2 µM ([4]; read-out: Capsid DNA % of Control): 10% | activity at 2 µM ([4]; read-out: DNA % of Control (extracted HBV DNA replication intermediates)): 1% | activity at 2 µM ([4]; read-out: Encapsidated pgRNA % of Control): 4% | EC50 [5]: 85.5 ± 10.9 nM | EC50 [6]: 88.2 ± 27 nM | EC50 [7, 17]: 146 ± 21 nM | Fold shift ([7]; Wild type): 1 fold | Fold shift ([8]; D29G vs wild type): 20 fold | EC50 [8, 17]: 2960 nM | EC50 [9, 17]: 3060 nM | Fold shift ([9]; T33N vs wild type): 21 fold | EC50 [10, 17]: > 10000 nM | Fold shift ([10]; T109I vs wild type): >68 fold | IC50 [11]: 27700 nM | CC50 relative to VR EC50 [12]: > 50 fold | % LBF [13]: 32% | CLpred [13]: 21 mL/min/kg | recovery at 4 days, 10 μM [14]: 67 to 84% | inhibitory activity against unrelated viruses [15]: no significant inhibitory activity | EC50 [16]: 173 to 307 nM
